Reference: patent US4060652A (priority 1976, dated 1977)
“Also recorded” adds a separate entry of the source.

What was measured:
rabbits [1] = test: Head-drop test in non-narcotized rabbits; type: in vivo
Experimental: In experiments (a total of twenty) on non-narcotized rabbits, the head-drop dose (HDD) was 0.022 ± 0.009 micromole/kg A complete blocking effect developed 1.5 to 2 minutes after administration of Tercuronium and persisted for 3 to 5 minutes. A few minutes later, the animal behaviour normalized. The same effect was attained with 0.18 ± 0.02 micromole/kg of α-tubocurarin (6 experiments) and 0.018 ± 0.001 mcM/kg of pancuronium (6 experiments). The time of onset and the duration of the blocking effect with all the three preparations were the same.

[2] = test system: ischio-gastrocnemius conduction; test: Block of ischio-gastrocnemius conduction in narcotized rabbits; type: in vivo
Experimental: In experiments on narcotized rabbits (chloralose, 50 mg/kg, and urethane, 500 mg/kg, given intravenously) the intravenous dose of Tercuronium that produced complete block of the ischio-gastrocnemius conduction was 0.025 ± 0.005 mcM/kg (five experiments).

[3] = Lethality by paralysis of respiratory muscles in mice; conditions: mouse, in vivo, iv
From the text: In experiments on albino mice, the dose of Tercuronium injected into the tail vein, that inhibited the symptom of turning from the lateral position in 50 percent of mice (ED50) was 0.06 mcM/kg (18 experiments); and 50 percent of mice perished from paralysis of the respiratory muscles (LD50) following an injection of 0.09 mcM/kg of Tercuronium.

respiration = test: Inhibition of respiration in narcotized and decerebrated cats (and rabbits); type: in vivo
From the text: This developed simultaneously with the block of the nervomuscular conduction in the anterior tibial muscle. […] The same result was obtained in experiments on rabbits. The ratio of LD50 in experiments on rabbits and mice, as specified above, also provides data on the that Tercuronium produces on respiration.

[4] = test system: M-cholinoreceptors and conduction in parasympathetic ganglia; test: Effect on M-cholinoreceptors and parasympathetic ganglia, n. vagus stimulation in cats; type: in vivo
Experimental: Experiments were carried out on narcotized cats (chloralose and urethane, intraperitoneally).
In experiments on five animals, the left nervus vagus was cut. Platinum electrodes were placed on the peripherial part to stimulate the nerve with pulses of 0.1 msec and an amplitude of 5 V. The nerve was stimulated every 10 seconds at a frequency of 30 Hz. The pulse rate was recorded (ECG) and the blood pressure in the femoral artery was measured with a mercury pressure gauge.

[5] = test system: nervomuscular conduction and arterial pressure; test: Effect of narcotics on action in decerebrated cats; type: in vivo
From the text: The action of ether, fluorothane, and sodium thiopental (given in narcotic concentrations) on the nervomuscular blocking activity and depressive effect (action on the arterial pressure) of Tercuronium, as well as on the neostigmin-Tercuronium antagonism was studied on decerebrated cats.

rabbits [6] = test: Chronic toxicity in rabbits; type: in vivo
Experimental: Tercuronium was given intravenously to four rabbits, once a day in the course of twelve days, in a dose that induced the head-drop symptom, i.e. 0.02 to 0.024 mcM/kg. Physiological solution was injected instead of Tercuronium to two other rabbits (controls). The animals were weighed daily, their rectal temperature taken, and behaviour observed. Clinical analysis of urine and blood was performed three times. At the end of the experiment, the rabbits were killed (phlebotomy). The liver, kidneys, heart, lungs, adrenal glands, spleen, as well as marginal ear vein, into which Tercuronium had been injected, were histologically studied.

patients [7] = test: Surgical operations, first series (maintenance of relaxation); type: in vivo, patients (human)
Experimental: (§1) We tried Tercuronium as a muscle relaxant in surgical operations on the abdominal and thoracic organs in 150 patients. The operations were carried out in conditions of intubation narcosis and artificial lung ventilation. Ether, fluorothane, nitrous oxide and barbiturates were used as anesthetics.
In the first series of observations (120 operations) Tercuronium was used as the main muscle relaxant for maintaining relaxation of the muscles. Tracheal intubation was carried out with muscle relaxation induced by dithilin-group agents. […] Complete muscle relaxation with the absence of active respiration continued on an average of 40 minutes. If, with the first signs of restoration of the muscle tone, we made another intravenous injection of Tercuronium in a dose constituting 1/3 to 1/2 of the initial one, complete relaxation continued for further 60 - 90 minutes.

patients [8] = test: Surgical operations, second series (intubation and maintenance); type: in vivo, patients (human)
Experimental: as §1
In the second series of observations (30 operations), Tercuronium was used for both maintaining muscle relaxation and intubation of the trachea. For this purpose, Tercuronium was used intravenously in a dose of 0.25 to 0.3 mg/kg. […] The relaxation continued for about an hour. For a longer relaxation of muscles, a repeated injection of Tercuronium in a dose of 0.05 to 0.08 mg/kg was required.

[9] = Solubility, stability and pH; type: physicochemical; conditions: for stability on exposure to air: solid
Experimental: The active principle of Tercuronium, viz., p,p"-bis-triethylammonio-n-terphenyl dibenzenesulphonate having the structure [drawing 1] is a new compound that has not been described in literature. […] A 0.0012 percent solution of the active principle in a 0.01 N solution of hydrochloric acid has a specific absorption spectrum in the U-V region, with a maximum at 285 ± 2 nm and a minimum at 237 ± 1 nm.
Distilled water should contain a stabilizing agent, namely 3 ml of a 0.1 N solution of HCl per liter of water. The solution is stirred, filtered, and filled into 1-ml ampoules made of neutral glass. The ampoules are sterilized with steam at a temperature of 100° C for thirty minutes. The pH of the solution after sterilization is 3.7 (determined potentiometrically).

[10] = deep fluorothane-induced anesthesia
[11] = ether, fluorothane, sodium thiopental
[12] = 0.02 to 0.024 mcM/kg daily, twelve days

Q: Which ED (head drop) (rabbits [1]; Oryctolagus cuniculus, read-out: head-drop dose (HDD)) does the source give for `CC[N+](CC)(CC)c1ccc(-c2ccc(-c3ccc([N+](CC)(CC)CC)cc3)cc2)cc1` [Tercuronium, p,p"-bis-triethylammonio-n-terphenyl dibenzenesulphonate] here?
A: 0.022 ± 0.009 µmol/kg

Q: What about the “time of onset and duration of blocking effect, comparison” value (rabbits [1]; all three preparations) of the same compound?
A: the same

Q: What about the “blocking effect compared with pancuronium” value (rabbits [1]; rabbits) of the same compound?
A: somewhat lower than that of pancuronium

Q: What about the “blocking effect relative to α-tubocurarin” value (rabbits [1]; rabbits) of the same compound?
A: eight

Q: What about the ED100 ([2]; Oryctolagus cuniculus, narcotized rabbits, intravenous, five experiments, read-out: dose producing complete block of ischio-gastrocnemius conduction) of the same compound?
A: 0.025 ± 0.005 µmol/kg

Q: And the “restoration of muscle contraction by neostigmin” value ([2]; neostigmin 0.1 mg/kg during complete block)?
A: always resulted in immediate and full restoration of the muscle contraction

Q: What about the LD50 [3] of the same compound?
A: 0.09 µmol/kg

Q: And the selectivity ratio ([3]; read-out: width of the muscle relaxing action (LD50/ED50))?
A: 1.5

Q: And the bronchospasm (respiration; 200-1000-fold dose, artificial ventilation, cats, same in rabbits)?
A: bronchospasm did not develop

Q: And the “inhibition of respiration by blocking doses, comparison” value (respiration; from LD50 to ED50 ratio)?
A: equally inhibit respiration

Q: What about the effect on respiration (respiration; narcotized and decerebrated cats) of the same compound?
A: respiration was inhibited and stopped by a curare-like paralysis of the diaphragm; also recorded: respiration was restored simultaneously with the restoration of the muscle contraction

Q: What about the “response of n. vagus to stimulation” value ([4]; 0.1 and 1.0 mcM/kg) of the same compound?
A: the response of n. vagus to stimulation did not change

Q: And the “heart contractility without stimulation of n. vagus” value ([4]; 0.1 and 1.0 mcM/kg intravenous)?
A: heart contractility was not affected

Q: What about the “effect on parasympathetic part of the vegetative nerve system” value ([4]; 20 times the myoparalytic dose) of the same compound?
A: does not produce any effect on the parasympathetic part of the vegetative nerve system

Q: And the bronchospasm or salivation ([4]; very large dose, other experiments on animals)?
A: no bronchospasm or salivation were observed

Q: And the “interaction with fluorothane on blood pressure” value ([5]; decerebrated cats)?
A: did not observe mutual strengthening of fluorothane and Tercuronium action on blood pressure

Q: And the “action on arterial pressure in ether narcosis” value ([5]; deep ether-induced narcosis)?
A: did not substantially change

Q: And the “depressive effect in fluorothane anesthesia” value [5, 10]?
A: failed to increase

Q: And the “myoparalytic effect in fluorothane anesthesia” value [5, 10]?
A: intensified insignificantly

Q: And the “compatibility with anesthetic agents” value [5, 11]?
A: quite compatible with anesthetic agents such as ether, fluorothane, and sodium thiopental

Q: And the “neostigmin antagonism against background of narcotics” value [5, 11]?
A: persisted against the back ground of narcotics; also recorded: fully preserved

Q: And the “curare-like activity and action on blood pressure with sodium thiopental” value ([5]; sodium thiopental 10 mg/kg)?
A: did not change

Q: What about the “behaviour and rectal temperature” value (rabbits [6]; [12]) of the same compound?
A: no appreciable changes

Q: And the “blood and urine analysis” value (rabbits [6]; [12])?
A: did not find any pathological inclusions or changes

Q: And the “histological examination of organs” value (rabbits [6]; [12])?
A: Nor did we discover any pathological changes

Q: What about the “sensitivity of animals in the course of the experiment” value (rabbits [6]; 0.02 to 0.024 mcM/kg intravenous daily, twelve days) of the same compound?
A: did not change in the course of the experiment

Q: And the “irritating action at site of administration” value (rabbits [6]; ear vein)?
A: no signs of irritating action

Q: What about the “arterial pressure and frequency of heart contractions” value (patients [7]; 0.12 - 0.15 mg/kg) of the same compound?
A: No changes in arterial pressure ar frequency of heart contractions, that could be attributed to the injection of Tercuronium, were observed

Q: And the “duration of complete muscle relaxation with absence of active respiration” value (patients [7]; 0.12 - 0.15 mg/kg intravenous, average)?
A: 40 min

Q: And the “electromyographic character of action” value (patients [7]; electromyographic analysis)?
A: nondepolarizing muscle relaxant

Q: And the postoperative complications (patients [7]; postoperative period)?
A: did not observe any case of insufficient efficacy of proserpin, muscular atomia, or insufficiency of active respiration, or recurarization

Q: What about the “restoration of active respiration by proserpin” value (patients [7]; proserpin 2.5 mg at end of operation) of the same compound?
A: always resulted in quick (within a few minutes) restoration of active respiration in full volume

Q: What about the “cardiovascular disorders or other complications” value (patients [8]; 0.25 to 0.3 mg/kg) of the same compound?
A: not accompanied by cardiovacular disorders or any other complications

Q: What about the duration of relaxation (patients [8]; 0.25 to 0.3 mg/kg intravenous) of the same compound?
A: about an hour

Q: And the intubation conditions (patients [8]; 0.25 to 0.3 mg/kg intravenous)?
A: unobstructed intubation

Q: And the postoperative complications (patients [8]; postoperative period)?
A: no cases of muscle atomia, respiratory insufficiency, or recurarization

Q: And the “efficiency of proserpin as deblocking agent” value (patients [8]; proserpin)?
A: complete

Q: What about the solubility in water [9] of the same compound?
A: readily soluble in water

Q: What about the “stability on exposure to air” value [9] of the same compound?
A: slightly green when exposed to air

Q: And the “stability on exposure to air” value ([9]; listed as p,p"-bis-triethylammonio-p-terphenyl)?
A: becomes slightly green on exposture to air

Q: And the “stability of aqueous solution” value ([9]; stabilizer 3 ml of 0.1 N HCl per liter of water)?
A: stable in the presence of a stabilizer
